Assay results published in US20130078224A1, “INDUCTION/MONITORING OF ARTERIOGENESIS USING SDF1 AND PDGFB OR INHIBITION OF PHD2” (LIFE SCIENCES RESEARCH PARTNERS VZW, priority 2010, published 2013).

Key:
NF-κB [1] = assay: NF-κB-responsive luciferase reporter assay in primary lung endothelial cells; assay type: cell-based, mice; conditions: WT and PHD2+/- ECs, TNF-α 20 ng/mL, eight hours
Description: Transduction and Transfection of Bone Marrow-Derived Macrophages and Lung Endothelial Cells: To express an inducible NF-κB responsive firefly luciferase reporter, commercially available lentiviral vector particles (LV) were used (Cignal Lenti NF-κB Reporter; SABiosciences). 2.5×10^5 bone marrow-derived macrophages and 10^5 primary lung endothelial cells (isolated as previously described (Mazzone et al., 2009, see above)) were seeded in a 24-well plate in DMEM 10% FBS or M199 20% FBS for eight hours. Cells were transduced with 10^8 TU/ml. Eight hours after transduction, the medium wash was replaced. After 48 hours, cells were stimulated with TNFα (20 ng/mL) for eight hours and the same amount of protein extract was read in a luminometer. For PHD3 silencing, siRNA oligonucleotides were designed using the Invitrogen online siRNA design tool (world wide web at maidesigner.invitrogen.com). The following sequences (sense strands) and target positions were used: PHD3 siRNA: 5′-[…]-3′ (SEQ ID NO:1); scramble siRNA:5′-[…]-3′ (SEQ ID NO:2). In brief, one day after the transduction of macrophages with LV, cells were transfected using Lipofectamine 2000 (Invitrogen) according to the manufacturer's instructions. Preparation of the oligonucleotide-Lipofectamine 2000 complexes was done as followed: 25 pmol siRNA oligonucleotide (stock: 20 μM) was diluted in 50 μl Opti-MEM I reduced serum medium. […]

NF-κB [2] = assay: NF-κB-responsive firefly luciferase reporter assay in bone marrow-derived macrophages; assay type: cell-based, mice; conditions: PHD2 haplodeficient vs WT macrophages
Description: Transduction and Transfection of Bone Marrow-Derived Macrophages and Lung Endothelial Cells: To express an inducible NF-κB responsive firefly luciferase reporter, commercially available lentiviral vector particles (LV) were used (Cignal Lenti NF-κB Reporter; SABiosciences). 2.5×10^5 bone marrow-derived macrophages and 10^5 primary lung endothelial cells (isolated as previously described (Mazzone et al., 2009, see above)) were seeded in a 24-well plate in DMEM 10% FBS or M199 20% FBS for eight hours. Cells were transduced with 10^8 TU/ml. Eight hours after transduction, the medium wash was replaced. After 48 hours, cells were stimulated with TNFα (20 ng/mL) for eight hours and the same amount of protein extract was read in a luminometer. For PHD3 silencing, siRNA oligonucleotides were designed using the Invitrogen online siRNA design tool (world wide web at maidesigner.invitrogen.com). The following sequences (sense strands) and target positions were used: PHD3 siRNA: 5′-[…]-3′ (SEQ ID NO:1); scramble siRNA:5′-[…]-3′ (SEQ ID NO:2). In brief, one day after the transduction of macrophages with LV, cells were transfected using Lipofectamine 2000 (Invitrogen) according to the manufacturer's instructions. Preparation of the oligonucleotide-Lipofectamine 2000 complexes was done as followed: 25 pmol siRNA oligonucleotide (stock: 20 μM) was diluted in 50 μl Opti-MEM I reduced serum medium. Lipofectamine 2000 (1.5 μl) was diluted in 50 μl Opti-MEM I reduced serum medium and incubated for five minutes at room temperature. siRNA oligonucleotides were gently mixed with Lipofectamine 2000 and allowed to incubate at room temperature for twenty minutes to form complexes. Just before transfection, the cell culture medium was removed and cells were rinsed twice with serum-free Opti-MEM I medium. The Lipofectamine 2000-siRNA oligonucleotide complexes were added to each well in 400 μl of serum-free Opti-MEM medium for five hours. Afterwards, cells were incubated in complete medium for 48 hours at 37° C. in a CO2 incubator and assayed for gene knockdown (qRT-PCR) and luciferase activity. To assess if the increased NFkB activity observed in PHD2^+/− macrophages was dependent on the hydroxylase activity of PHD2, 48 hours before transduction, 4×10^6 bone marrow-derived macrophages were resuspended in 240 μl of Opti-MEM and were electroporated (250 V, 950 uF, ∝ Ω) with 7 μg of plasmids expressing a wild-type PHD2 (PHD2^wt) or a PHD2 containing a mutation at the catalytic site (PHD2^H313A).

PDGFB, SDF1, and Tie2 = assay: Gene expression (qRT-PCR) in PHD2Rosa26CreERT;lox/wt peritoneal macrophages after 4-OHT; assay type: cell-based, mice; conditions: 2 μM, 48 hours
Description: Macrophage Preparation: To harvest peritoneal macrophages (pMØ), the peritoneal cavity was washed with 5 ml of RPMI 10% FBS. The pooled cells were then seeded in RPMI 10% FBS in six-well plates (2×10^6 cells/well), twelve-well plates (1×10^6 cells/well), or 24-well plates (5×10^5 cells/well). After six hours of incubation at 37° C. in a moist atmosphere of 5% CO2 and 95% air, non-adhering cells on each plate were removed by rinsing with phosphate-buffered saline (PBS). The attached macrophages were cultured in different mediums for 12 hours or 48 hours, depending on the experiments performed, as described below. When high amounts of cells were needed (analysis for HIF accumulation and NF-κB activity), macrophages were derived from bone marrow precursors as described before (Meerpohl et al., Eur. J. Immuno. 6:213-7, 1976). Briefly, bone marrow cells (2×10^6 cells/ml) were cultured in a volume of 5 ml in a 10 cm Petri dish (non-tissue culture-treated, bacterial grade) for ten days in DMEM supplemented with 20% FBS and 30% L929 conditioned medium as a source of M-CSF. The cells obtained in those cultures are uniformly macrophages. […]
Quantitative PCR Analysis: In order to investigate gene expression in pMØ, quantitative RT-PCR (qRT-PCR) was performed. […] Quantitative RT-PCR was perfouned with commercially available or homemade primers and probes for the studied genes. […]

[3] = early clinical trials in myocardial infarction; cited from earlier work
F4/80+Tie2+ cells = assay: Deletion of TEMs by GCV in Tie2:tk-BMT mice (F4/80 and Tie2 double staining of adductor); assay type: in vivo; conditions: GCV 50 mg/kg daily
[4] = system: secondary and tertiary collateral arteries; assay: Collateralization and ischemic necrosis in Tie2:tk-BMT mice after GCV; assay type: in vivo; conditions: PHD2+/- Tie2:tk-BMT mice
PHD2 = PHD2 expression (qPCR) in bone marrow-derived monocyte/macrophage cultures upon cytokine stimulation; assay type: cell-based, mice
Description: Quantitative PCR Analysis: In order to investigate gene expression in pMØ, quantitative RT-PCR (qRT-PCR) was performed. After preparing pMØ, the cells were cultured in normoxic condition for twelve hours, and the RNA was extracted. To analyze the gene profile of adductor, gastrocnemius, and soleus muscle, tissues were collected at baseline or 24 hours/72 hours post-ischemia and RNA was extracted. Macrophages and ECs were freshly sorted from dissected adductors as described below and RNA was extracted. Quantitative RT-PCR was perfouned with commercially available or homemade primers and probes for the studied genes. The assay ID (Applied Biosystems, Foster City, Calif.) or the sequence of primers and probes (when homemade) are listed in Table 5. RNA levels of Tie-2, SDF1 and PDGFB after inhibition of NF-κB pathway were measured by qRT-PCR on pMØ exposed for twelve hours to 500 nM 6-amino-4-(4-phenoxyphenylethylamino)quinazoline. […] After 24 hours, cells were harvested for RNA extraction and cDNA preparation.

Tie2, PDGFB and SDF1 = assay: Expression of PDGFB, SDF1 and Tie2 (qPCR) in monocytes/macrophages upon angiopoietin-1; assay type: cell-based, mice; conditions: monocytes/macrophages after angiopoietin-1 stimulation (50 and 250 ng/ml)
Description: Quantitative PCR Analysis: In order to investigate gene expression in pMØ, quantitative RT-PCR (qRT-PCR) was performed. After preparing pMØ, the cells were cultured in normoxic condition for twelve hours, and the RNA was extracted. To analyze the gene profile of adductor, gastrocnemius, and soleus muscle, tissues were collected at baseline or 24 hours/72 hours post-ischemia and RNA was extracted. Macrophages and ECs were freshly sorted from dissected adductors as described below and RNA was extracted. Quantitative RT-PCR was perfouned with commercially available or homemade primers and probes for the studied genes. The assay ID (Applied Biosystems, Foster City, Calif.) or the sequence of primers and probes (when homemade) are listed in Table 5. RNA levels of Tie-2, SDF1 and PDGFB after inhibition of NF-κB pathway were measured by qRT-PCR on pMØ exposed for twelve hours to 500 nM 6-amino-4-(4-phenoxyphenylethylamino)quinazoline. To evaluate PHD2 levels on monocyte/macrophage cultures, 2.5×10^5 bone marrow-derived monocytes/macrophages (see above) were seeded in a 24-well plate in DMEM 10% FBS and stimulated with 50 ng/ml angiopoietin-1 (Peprotech) or 50 ng/ml angiopoietin-2 (Prospec). After 24 hours, cells were harvested for RNA extraction and cDNA preparation.

## TNF-α
NF-κB [1]
  NF-κB activity: increases to the same level
NF-κB [2]
  TNF-α-induced NF-κB activation: significantly stronger

## 4-hydroxytamoxifen
PDGFB, SDF1, and Tie2
  expression of PDGFB, SDF1, and Tie2: increased expression

## C[C@H]1C[C@@H]2[C@H]([C@@H](O)C[C@@]3(C)[C@H]2CC[C@]3(O)C(=O)CO)[C@@]2(C)C=CC(=O)C=C12 [methylprednisolone]
[3]
  mortality due to left ventricle rupture: drastically increased mortality

## Nc1nc(O)c2ncn(COC(CO)CO)c2n1 [GCV, ganciclovir]
F4/80+Tie2+ cells; PHD2+/- Tie2:tk-BMT mice, 72 hours post-ischemia
  reduction of density of F4/80+Tie2+ cells: 68±5%
F4/80+Tie2+ cells; PHD2+/- Tie2:tk-BMT mice, baseline
  reduction of density of F4/80+Tie2+ cells: 58±11%
F4/80+Tie2+ cells; WT Tie2:tk-BMT mice, 72 hours post-ischemia
  reduction of density of F4/80+Tie2+ cells: 39±6%
F4/80+Tie2+ cells; WT Tie2:tk-BMT mice, baseline
  reduction of density of F4/80+Tie2+ cells: 46±10%
[4]; 72 hours after ligation
  ischemic protection (fiber necrosis): abolished ischemic protection
[4]; baseline, vs untreated group
  formation of secondary and tertiary collateral arteries: completely prevented

B1: angiopoietin-1: Tie2 ligand cytokine (Peprotech) (protein, UniProt Q15389 16-498, looked up)
Angiopoietin-1: HIGCSNQRRSPENSGRRYNRIQHGQCAYTFILPEHDGNCRESTTDQYNTNALQRDAPHVEPDFSSQKLQHLEHVMENYTQWLQKLENYIVENMKSEMAQIQQNAVQNHTATMLEIGTSLLSQTAEQTRKLTDVETQVLNQTSRLEIQLLENSLSTYKLEKQLLQQTNEILKIHEKNSLLEHKILEMEGKHKEELDTLKEEKENLQGLVTRQTYIIQELEKQLNRATTNNSVLQKQQLELMDTVHNLVNLCTKEGVLLKGGKREEEKPFRDCADVYQAGFNKSGIYTIYINNMPEPKKVFCNMDVNGGGWTVIQHREDGSLDFQRGWKEYKMGFGNPSGEYWLGNEFIFAITSQRQYMLRIELMDWEGNRAYSQYDRFHIGNEKQNYRLYLKGHTGTAGKQSSLILHGADFSTKDADNDNCMCKCALMLTGGWWFDACGPSNLNGMFYTAGQNHGKLNGIKWHYFKGPSYSLRSTTMMIRPLDF
PHD2; WT monocytes/macrophages
  PHD2 levels down-regulated, dose-dependent, up to: 50 % of the basal levels
PHD2; after angiopoietin-1 stimulation
  PHD2 down-modulation in monocytes/macrophages: 40%
Tie2, PDGFB and SDF1
  expression of Tie2, PDGFB and SDF1: increased expression
